Experimental data: patent publication US12642827B2, “Lactic acid bacteria strain—antibacterial peptides produced by said strain and related pharmaceutical compositions” (UNIVERSITE DE LILLE, priority 2019, dated 2026)
Ends that are not written are not given here. His‑tag = His-Tag tail of six histidine residues (6 His), attached at the N- or C-terminal end

What was measured:
Format in all cases: cell-based, Escherichia coli
[1] = test system: E. coli colistin-resistant strain; experiment: Anti-E. coli activity (AU/mL) of recombinant peptides; conditions: purified on Ni-NTA, adjusted to pH 5
Text: Each of the orf coding for putative bacteriocin was cloned in expression vector suitable for E. coli competent cells. Each orf was cloned under the control of the inducible T7 promoter and with His-Tag (6 His) tail positioned on the N-terminal or C-terminal part. The cloning of each orf at the N- or C-terminal position of Histag tail, has led to 10 recombinant plasm ids. Each of these recombinant plasm ids was introduced in E. coli BL21 (DE3)(plysS) competent cells. The successfully transformed E. coli was regenerated in SOC medium for 1 h at 37° C. with shaking at 160 rpm, and then selected on Luria-Bertani (LB) agar medium supplemented with ampicillin (100 μg mL^−1) and chloramphenicol (30 μg mL^−1) (Sigma Aldrich). After overnight incubation at 37° C., the obtained colonies on LB agar medium with antibiotics were checked for the presence of the recombined plasmid containing the appropriate cloned orfs by PCR using specific primers.
Overnight culture of E. coli strain BL21(DE3)(pLysS), harboring each recombinant plasmid, was diluted to 1% (vol/vol) in LB medium containing ampicillin (100 μg mL^−1) and chloramphenicol (30 μg mL^−1) and then grown aerobically at 37° C. […]
Then the obtained solution was adjusted to pH 5 using acetic acid and then its activity (AU/mL) against E. coli colistin-resistant strain was evaluated, as described previously.

E. coli 184 = conditions: E. coli 184, mcr-1+
Protocol: (§1) The cell-free supernatant (CFS) was obtained by centrifugation (8 000 g, 10 min, 4° C.) of a culture of L. paracasei I-CNCM 5369 grown without shaking on MRS medium for 24 to 30 h at 37° C. Then 40 mL of the obtained CFS was loaded onto a reversed phase C18 (Agilent, USA) cartridge. Afterwards, a washing step was performed with 10% (v/v) acetonitrile followed-up by an elution with 40 mL of 20% (v/v) acetonitrile solution in order to eluate the active fraction. The active fraction was dried using SpeedVac and resuspended in 1:10 of the initial volume of ultrapure water. The resulting active solution was designed as fraction E20 (or E20% particularly in the figures) throughout the text. Fraction E20 was stored at 4° C. and therefore used for the different tests to characterize the anti-E. coli activity. Noteworthy, E20 fraction was tested against a panel of E. coli strains with different genotypes to examine their sensibility to the putative bacteriocin(s) contained in this fraction. This assessment was performed by the determination of the minimal inhibitory concentration (MIC) values, which were ranging from 250 to 2 000 μg/mL (Table 5).
(§2) E20 fraction prepared from L. paracasei I-CNCM 5369, was half-diluted and mixed with colistin at a concentration ranging from 1 to 128 μg/mL in BHI medium. The resulting formulations were tested against E. coli 184, carrying the mcr-1 gene, as well as on other E. coli strains (Table 6). After an overnight period of incubation at 37° C., the growth of E. coli strains was checked by spectrophotometry at OD600 nm, and new MIC values of colistin/E20 were determined. […] Indeed, the decreased from 8 to 2 μg/mL in the presence of E20 fraction. This synergetic interaction was as well observed for other E. coli strains, where the MIC values decreased twice for E. coli E4A4WT, 4 times folds for E. coli 289 and 8 times for E. coli E4A4 variant. […] The weight composition of the mixture of E20 fraction+colistin is indicated in brackets next to the MIC value. The first value refers to the amount of colistin in μg/mL, whereas the second in brackets refers to the amount of E20 fraction in μg/mL).
(§3) The alginate nanoparticles (Alg NPs) were obtained by a top down process (ball milling) and used at a concentration of 500 μg/mL. The E20 fraction was mixed at a concentration of 60 μg/mL with this suspension, which corresponds to 12% of the used Alg NPs concentration. […] To gain insights on the effects of alginate nanoparticles, colistin was also loaded on Alg NPs and the resulting formulation (colistin-Alg NPs) was tested against same target E. coli strains.

E. coli 289 = conditions: E. coli 289, mcr-1−
Protocol: as §1, §2, §3

E. coli SBS36 = conditions: E. coli SBS36, truncated LPS
Protocol: as §1, §2, §3

E. coli TOP10 = conditions: E. coli TOP10, LPS-
Protocol: as §1, §2, §3

E. coli CIP7628 = experiment: MIC determination; conditions: E. coli CIP7628, reference strain
Protocol: as §1
The alginate nanoparticles (Alg NPs) were obtained by a top down process (ball milling) and used at a concentration of 500 μg/mL. […]

E. coli ATCC8739 [2] = experiment: MIC determination; conditions: E. coli ATCC8739, reference strain
Protocol: as §1
as §2, with “The first value refers to the amount of colistin in μg/mL, whereas the second in brackets refers to the amount of E20 fraction in μg/mL).” left out

E. coli E4A4 WT = experiment: MIC determination; conditions: environmental strain
Protocol: as §1
as §2, with “The first value refers to the amount of colistin in μg/mL, whereas the second in brackets refers to the amount of E20 fraction in μg/mL).” left out

E. coli E4A4 variant = experiment: MIC determination; conditions: colistin unsensibilised
Protocol: as §1
as §2, with “The first value refers to the amount of colistin in μg/mL, whereas the second in brackets refers to the amount of E20 fraction in μg/mL).” left out

panel of E. coli strains = experiment: Anti-E. coli activity / MIC over a panel of strains
E. coli ATCC8739 [3] = experiment: Killing curves; conditions: BHI, inhibitory concentration (colistin 16 μg/mL), pH 4.5-5, 37° C.
Protocol: The killing curves were determined on three E. coli strains, because of for their resistance or sensitivity to colistin. These strains were E. coli 184 (mcr-1), E. coli E4A4 variant with resistance to colistin, and E. coli ATCC8739 colistin-sensitive reference strain (Table 5). These strains were inoculated in BHI (Brain Heart Infusion) medium containing the semi-purified fraction of E20 fraction at inhibitory concentration. An untreated E. coli ATCC8739 control treated with inhibitory concentration of colistin (16 μg/mL) was also tested. The pH of the medium was adjusted to 4.5-5 in the various samples, which were incubated at 37° C. for 8 h. At regular intervals of time, samples were taken to determine the number of colony forming units per mL (CFU/mL) under each tested condition.
As depicted in the FIG. 2, the number of CFU/mL of the strains treated with E20 fraction decreased rapidly with no visible growth (0 CFU/mL), after 1 h of incubation. […] A similar data was obtained after 1 h of incubation for E. coli ATCC8739 treated with colistin (16 μg/mL).

Row | Substance | anti E. coli activity [1] [AU/mL] | MIC (E. coli 184) [µg/mL] | MIC (E. coli 289) [µg/mL] | MIC (E. coli SBS36) [µg/mL] | MIC (E. coli TOP10) [µg/mL] | MIC (E. coli CIP7628) [µg/mL] | MIC (E. coli ATCC8739 [2]) [µg/mL] | MIC (E. coli E4A4 WT) [µg/mL] | MIC (E. coli E4A4 variant) [µg/mL] | colistin MIC of E. coli 184 compared to reference strain E. coli ATCC8739 (panel of E. coli strains) | incubation time to no visible growth (0 CFU/mL) (E. coli ATCC8739 [3]) [h]
1 | Orf10 HisTag C-ter: recombinant Orf010 peptide with C-terminal His-Tag expressed in E. coli BL21 (DE3) (pLysS) (MYTMTNLKDKELSQITGGFAFVIPVAAILGFLASDAWSHADEIAGGATSGWSLADKSHSL-{His‑tag}; not fully specified; listed as Lactobacillus paracasei) | 200 |  |  |  |  |  |  |  |  |  | 
2 | colistin |  | 8 | 8 | 2 | 1 | 1 | 2 | 2 | 16 | four folds higher | 1
